In article PMC4527731, “Calcineurin Undergoes a Conformational Switch Evoked via Peptidyl-Prolyl Isomerization” (PLoS ONE, 2015):

How the values were obtained:
[1] = system: CNA (human CNAα catalytic domain); test: Fluorescence polarization competition of CF-SPRIEIT-CNA complex; format: binding; settings: 10 nM CF-labeled SPRIEIT, 10 μM CNA, unlabeled competitor pre-incubated 15 min at increasing concentrations, room temperature, ex 485 nm, em 535 nm, two independent experiments in triplicates (Fig 6a)
Description: Peptides were purchased from the Peptide 2.0 Company (Chantilly, VA) and synthesized as acetylated N-terminal and C-terminal amides for the unlabeled peptides and N-carboxyfluorescein (CF) and C-terminal amide for the labelled peptide. The sequences of the peptides used are the following: […] for the RCAN^183–203 peptide; […] for the cis-CNA derived peptide; and […] for the NFATc2-SPRIEIT (SPRIEIT) peptide. All peptides were resuspended in 100% DMSO at 10 mM. Cyclosporin A (CsA) was obtained from Sandoz. Ionomycin (Io) sodium salt and Phorbol 12-myristate 13-acetate sodium salt (PMA) were obtained from Sigma. The anti-calcineurin A antibody was purchased from BD Biosciences and the anti-Flag M2 antibody was purchased from Sigma. The protease and phosphatase inhibitor cocktails were from Calbiochem.
Expression, purification and isolation of the CNAα domain was performed as previously described. […]
Competition assays were performed as described. […] Unlabeled competitor peptides were pre-incubated with CNA at increasing concentrations for 15 min before adding the fluorescence labeled peptide. Experiments were performed in a OptiPlate black 384-well-flat-bottom plates (PerkinElmer Life Sciences, Waltham, MA) and measured using a Wallac VICTOR (TM) X5 2030 Multilabel Reader (PerkinElmer Life Sciences) with excitation and emission wavelengths of 485 nm and 535 nm respectively. […]

[2] = system: Endogenous CNA / GST-RCAN3 interaction; test: GST-RCAN3 pull-down competition assay; format: binding; settings: HEK 293T lysate, peptide at increasing concentrations for 30 min, then GST–RCAN3 beads 90 min at 4°C (Fig 6b)
Description: (§1) In GST-RCAN3 pull-down competition assays, HEK 293T cells were lysed in co-immunoprecipitation buffer (50 mM Tris–HCl, pH 7.5, 100 mM NaCl, 2 mM CaCl2, 5 mM MgCl2, 1% IGEPAL, 1 mM DTT, 2 mM PMSF and protease and phosphatase inhibitor cocktails) and the CNA- and the RCAN3-derived peptides containing a PxIxIT sequence were added to the extracts at the indicated concentrations for 30 min. Then, the soluble extracts were incubated with GST–RCAN3 bound to Glutathione Sepharose beads for 90 min at 4°C. After extensive washing, co-precipitated proteins were eluted by resuspension in 2× Laemmli buffer and boiled for 10 min. For GST–NFATc2 pull-down competition assays, HEK 293T cells transfected with FLAG–CNA (2–389) were lysed in a buffer containing 50 mM Tris–HCl, pH 8, 100 mM NaCl, 1.5 mM CaCl2, 6 mM MgCl2, 0.2% TX-100, 1 mM PMSF and protease and phosphatase inhibitor cocktails. Soluble extracts were incubated with GST–NFATc2 bound to Glutathione Sepharose beads for 60 min at 4°C.

[3] = system: Flag-CNA 2–389 / GST-NFATc2 interaction; test: GST-NFATc2 pull-down competition assay; format: binding; settings: HEK 293T cells transfected with FLAG–CNA (2–389); soluble extracts with GST–NFATc2 beads 60 min at 4°C; increasing peptide concentrations (Fig 6c)
Description: as §1

[4] = system: Endogenous CN in HEK 293T cells; test: Inhibition of endogenous CN activity by CsA in NFATc-luciferase reporter assay; format: cell-based; settings: 1 μM CsA, 30 min before stimulation with Io/PMA/Ca^2+ for 6 hours
Description: Flag-hCNAα mutants were performed by PCR using CN specific primers (Table 2). ΔNIR mutant lacks the CNA PXIXIT binding region VMNIR ranging from amino acids 328 to 332. All Flag-CNA constructs bear the Y341F mutation to achieve CsA resistance unless for the specified wt. Luciferase gene assays were performed in HEK 293T cells transfected with 100 ng of 3xNFAT-luc plasmid, 100 ng of pBJ5-mCNB, 1 ng of pRLNull as an internal transfection control and 400 ng of the indicated Flag-hCNAα mutants constructs. Stimulation was achieved by treating the cells with.1 μM ionomycin, 10 nM PMA and 10 mM CaCl2. Endogenous CN activity was abolished by treating cells with 1 μM Cyclosporin A (CsA) 30 min prior to stimulation. FK506 was used as a positive control for CsA-resistant CN. After 6h of cell stimulation, 10 μl of cell extract were analyzed for luciferase gene expression using the Dual-Luciferase Reporter Assay (Promega) following the manufacturer’s protocol on a multiplate luminometer (FLUOstar Optima, BMG). Luciferase units were normalized to densitometric data of 10 μl of cell extract analyzed by western blot. Absence of cell stimulation is shown with a minus symbol (-). Three experiments were performed with triplicates. Stimulation of the Y341F mutant was considered as 100% value.

[5] = target: T1, catalytic domain of human CNAα (residues 2–347) (human, UniProt Q08209-1 2-347); test: fluorescence polarisation; competition: 10 nM CF-labeled SPRIEIT peptide and 10 μM CNA; unlabeled competitor peptides pre-incubated with CNA at increasing concentrations for 15 min; room temperature; settings: both partners purified
T1 construct: calcineurin catalytic subunit A, alpha isoform, human, NCBI NP_000935.1, catalytic domain residues 2-347; also called CNAα catalytic domain; trans-CNA; source: from the pGEX-6P-1-CNAα plasmid
T1 sequence (Q08209 2-347): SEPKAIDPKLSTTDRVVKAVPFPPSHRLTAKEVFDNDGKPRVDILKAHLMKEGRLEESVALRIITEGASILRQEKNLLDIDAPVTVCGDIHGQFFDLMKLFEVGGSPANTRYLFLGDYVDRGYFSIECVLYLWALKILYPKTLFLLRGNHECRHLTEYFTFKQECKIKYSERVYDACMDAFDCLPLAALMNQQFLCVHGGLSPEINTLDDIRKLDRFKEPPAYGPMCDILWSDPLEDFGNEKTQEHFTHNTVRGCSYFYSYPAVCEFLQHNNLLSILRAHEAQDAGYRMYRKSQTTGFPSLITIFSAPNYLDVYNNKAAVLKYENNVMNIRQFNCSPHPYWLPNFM

Molecule | interference with CN–SPRIEIT peptide interaction (fluorescence polarization competition) [1] | interference with CN–GST-RCAN3 interaction (pull down) [2] | interference with CN–GST-NFATc2 interaction (pull down) [3] | endogenous CN activity after CsA treatment [4] | binding result [5]
NNKAAVLKYE | does not interfere with high affinity interactions | does not interfere with high affinity interactions | does not interfere with high affinity interactions |  | 
Cyclosporin A [CsA] |  |  |  | abolished | 
KYELHAGTESTPSVVVHVCES [R3^183-203, RCAN3-derived PxIxIT-containing peptide (amino acids 183–203)] | able to disrupt CN interaction with proteins containing a PxIxIT motif | able to disrupt CN interaction with proteins containing a PxIxIT motif | able to disrupt CN interaction with proteins containing a PxIxIT motif |  | 
Ac-KYELHAGTESTPSVVVHVCES-NH2 (source: synthetic peptide, bought: Peptide 2.0 Company) [RCAN3-derived PxIxIT-containing peptide (amino acids 183–203)] |  |  |  |  | binds
